# From US12370202B2, “Methods and compositions for inhibiting the NLRP3 inflammasome and/or LON protease” (TRITERPENOID THERAPEUTICS, INC., priority 2019, dated 2025)
# Legend:
# brain tumor cell lines = assay: Radiation response of brain tumor cell lines in vitro; type: cell-based
# primary human astrocytes = assay: Viability of primary human astrocytes; type: cell-based; conditions: doses that result in complete cell death of LN227, U251 and U-87MG; not shown
# Procedure: (§1) To define the capacity of CDDO-2P-IM to suppress the growth and viability of GBM, several well-characterized human GBM cell lines (U251, U-87MG, LN227, Gli36Δ5), primary cultures of patient-derived GBM cells (UVM04, D028), and normal human astrocytes (provided by Dr. Arti Gaur, Dartmouth College) were utilized.
# (§2) The activity of CDDO-2P-IM in cultures of human GBM was assessed and similar nanomolar (nM) potency was observed. […] These changes in confluence observed by Incucyte® corresponded with a reduction in cell viability. Doses of CDDO-2P-IM that result in complete cell death of the LN227, U251 and U-87MG cell lines had no effect on the viability of primary human astrocytes in vitro (not shown).
# 5T33MM cells [1] = assay: 5T33MM syngeneic preclinical model of multiple myeloma; type: in vivo
# From the text: FIG. 1 is a survival curve. Survival of mice receiving either ixazomib (IXZ) or CDDO-2P-Im starting 21 days after tumor cell injection (n=5 mice per group). CDDO-2P-Im is active in the […] preclinical model of multiple myeloma.
# A well-characterized syngeneic model of MM was employed. Adoptive transfer of 5T33MM cells into C57BL/KaLwRij recipient mice invariably leads to MM bone disease, impaired hematopoietic function and death.
# To monitor MM tumor progression in the 5T33MM preclinical model, a 5T33MM cell line that expresses either luciferase or GFP genes was established by transducing with lentiviral particles containing firefly luciferase and GFP genes (Amsibo, Cambridge, MA); cells were selected with FACS sorting for GFP expression and by puromycin-resistance. For these experiments, 1×10^6 5T33MM-luc cells were introduced by intravenous injection into C57BL/KaLwRij mice at 2 months of age. Bioluminescence (BLI) was measured by using the IVIS Imaging System 100 (Xenogen). At 3 weeks after 5T33MM cell inoculation (where mice have established disease by BLI), mice were randomized to receive either vehicle, CDDO-2P-IM ([…] daily administered by oral gavage (po), 5 days/week), or ixazomib (IXZ; 6 mg/kg per week, administered po every Monday, Wednesday and Friday).
# 5T33MM cells [2] = assay: MM cell proliferation (confluence), IncuCyte imaging; type: cell-based, murine; conditions: 72 hours
# Procedure: FIG. 2 is a bar graph. CDDO-2P-Im inhibits proliferation of multiple myeloma cell line in vitro. 5T33MM, RPMI8226, and ARH77 cells were seeded in 96-well plates and incubated with CDDO-2P-Im (50 nM-150 nM). Confluence (cell proliferation) was measured using IncuCyte imaging after 72 hours. *p<0.01 compared to control.
# FIG. 3 is a bar graph. […] Shown here are results for 5T33MM (50 nM TTX01/7.5 nM IXZ); RPMI8226 (100 nM TTX01/7.5 nM IXZ); and ARH77 (150 nM TTX01/10 nM IXZ). Confluence (cell proliferation) was measured using IncuCyte imaging after 72 hours.
# To examine tumor-intrinsic effects of CDDO-2P-IM in the 5T33MM cell line and in human MM cells, conducted a series of in vitro studies was conducted. For these experiments, 96-well plates were first coated in poly-L-ornithine before cells were seeded (in triplicate), including the murine 5T33MM and the human RPMI8226, and ARH77 cell lines (15,000 cells per well). Cells were incubated in IncuCyte™ Live-Cell Analysis System for 72 hours (images were taken every 4 hours). To define dose-dependent effect of CDDO-2P-IM, cells were exposed to concentrations ranging from 50 nM to 150 nM. To examine potential synergy of CDDO-2P-IM with IXZ, MM cells were exposed to IXZ (7 nM-10 nM) either alone or in combination with CDDO-2P-IM.
# LN227 = assay: GBM cell growth (confluence), IncuCyte; type: cell-based, human; conditions: nanomolar concentrations
# Procedure: (§3) FIG. 8 is a set of line graphs. CDDO-2P-Im suppresses growth of TMZ-resistant human GBM cells in vitro. […] Reduction in confluence is accompanied by the detachment and death of GBM cells. The data reveal that the relatively TMZ-resistant U-87MG is equivalent to LN227 in its sensitivity to CDDO-2P-Im.
# as §1, §2
# U-87MG = assay: GBM cell growth (confluence), IncuCyte; type: cell-based, human
# Procedure: as §3, §1, §2
smiles,measurement,setting,value
"CC1(C)CC[C@]2(C(=O)n3cnc(-c4ccccn4)c3)CC[C@]3(C)[C@H](C(=O)C=C4[C@@]5(C)C=C(C#N)C(=O)C(C)(C)[C@@H]5CC[C@]43C)[C@@H]2C1 [CDDO-2P-Im, 1-[2-Cyano-3,12-dioxooleana-1,9(11)-dien-28-oyl]-4(-pyridin-2-yl)-1H-imidazole]",radiation response,brain tumor cell lines,enhances radiation response
same,viability,primary human astrocytes,no effect
same,anti-MM activity (survival) as a single agent,"5T33MM cells [1]; daily oral gavage 5 days/week from 3 weeks after 5T33MM-luc inoculation, compared to IXZ 6 mg/kg per week po",comparable to or better than IXZ
same,tolerability,5T33MM cells [1]; daily oral regimen,well tolerated
same,"proliferation (confluence), combination with IXZ",5T33MM cells [2]; 50 nM TTX01/7.5 nM IXZ,act synergistically
same,"proliferation (confluence), agent added alone",5T33MM cells [2]; 50 nM TTX01 or 7.5 nM IXZ alone,only partially effective
same,proliferation (confluence),5T33MM cells [2]; 50 nM-150 nM,significant dose-dependent suppressive effects
same,confluence (growth),LN227,dose-dependent reduction
same,confluence (growth),U-87MG; nanomolar concentrations,dose-dependent reduction
same,"GBM cell kill, combination with TMZ","U-87MG; suboptimal dose of CDDO-2P-Im combined with TMZ, significance at 0.005 or greater",significant gain
